The subject of data set [1] is P. falciparum K1 strain vs MRC-5 human fibroblasts. The data set can be described thus: Selectivity index, IC50 (human fibroblasts) ÷ IC50 (P. falciparum). The class given is cell-based, Plasmodium falciparum. An excerpt:
Calculation of the selectivity index (SI) using the following formula afforded the relative toxicity of each sample to human fibroblasts and to P. falciparum blood stages: SI = IC50 (human fibroblasts) ÷ IC50 (P. falciparum).

Data set [2] relates to K1 strain of Plasmodium falciparum. The experiment in a line: In vitro susceptibility assay (microtest), P. falciparum K1 growth inhibition. The class given is cell-based. The following applies: Plasmodium falciparum, K1, 48 h. As for the experimental part:
In vitro culture of the K1 strain of P. falciparum (MRA-159, MR4, ATCC, Manassas, Virginia, USA) proceeded following an established method with modifications. Briefly, this method involved the growth of parasites in human type A+ red blood cells and RPMI 1640 medium supplemented with 10% type A+ human plasma at 37 °C under an atmosphere of 5% O2, 5% CO2, and 90% N2.
As initial condition for the susceptibility assay, cultures were synchronized by treatment with 5% D-sorbitol, which provided young trophozoites (ring stages). Performance of the microtest followed a previously described procedure with modifications. Compounds were dissolved in DMSO with the aid of an ultrasound bath to provided stock solutions. […] These diluted samples were evaluated in duplicate in a 96-well test plate. A suspension of parasitized red blood cells (pRBCs) at 2% hematocrit and 1% parasitemia was added to each well. Microplate incubation proceeded for 48 h at 37 °C under the same atmosphere used for parasite culture in two independent experiments conducted on different days. Control wells contained chloroquine (0.003–2.5 μg/mL) and quinine (0.003–2.5 μg/mL). Six (6) control (blank) wells were prepared with pRBCs suspension. Six cosolvent control wells were prepared with 1% DMSO and pRBCs suspension. An average of these 12 controls defined drug-free (untreated) growth. After the incubation period, thin blood smears of the contents of each well were prepared on microscope slides. Optical microscopy was used to analyze the blood smears and establish the parasitemia of each well. Interpolation of the nonlinear curve using GraphPad Prism permitted the calculation of estimates of the sample concentrations able to inhibit 50% of parasite growth (IC50) compared to drug-free controls.

Another data set has as its system MRC-5 human fibroblasts. The data set can be described thus: Cytotoxicity/cell viability assay (Alamar blue). Conditions: read-out: fibroblasts IC50. The class given is cell-based. Here is the method: Medical Research Council cell strain 5 (MRC-5) human fetal fibroblasts were cultivated in Dulbecco′s modified Eagle’s medium (DMEM) supplemented with 10% bovine fetal serum and 1% antibiotic at 37 °C under an atmosphere of 5% CO2. Cell viability assessment relied on the Alamar blue method. […] Doxorubicin at concentrations of 0.312, 0.625, 1.25, 2.50, 5.00, 10.0, and 20.0 μM was used as a positive control for cell death. The negative control wells received DMSO (sample diluent) at 0.1%. In preparation for the assay, this method involved plating 0.5 × 10^4 cells/well on 96 well test plates and incubating for 24 h under the same conditions used for cell culture. This initial 24 h period was necessary for cell adhesion. The assay consisted of triplicate addition of diluted samples and controls to wells followed by 48 h of incubation. For quantification of viable cells, 10 μL of 0.4% Alamar blue (Sigma-Aldrich)–which works out to an in-well concentration of 0.02%–were added to each well 3 h before the end of the treatment. Alamar blue was allowed to react for 3 h followed by quantification of the optical density (OD) of each well at an excitation wavelength of 465 nm and emission wavelength of 540 nm using an ELISA plate reader (DTX-800, Beckman Coulter). Comparison of individual sample viability OD to that of controls (blanks) afforded the cell viability. Interpolation of the nonlinear curve using GraphPad Prism software permitted the calculation of estimates of the sample IC50 values compared to drug-free controls.

In the next data set the test system is P. falciparum K1 strain. More on the design: method as in earlier work. The following applies: ref previous reports incl. authors' earlier work (numbers not shown); cited from earlier work.
For data set [3], the system named is mouse mammary carcinoma (FM3A) cell cultures. Also noted: method as in literature (number not shown). Conditions: ref literature (number not shown); cited from earlier work.
For data set [4], the system named is P. falciparum FCR3 strain. More on the design: method as in literature (numbers not shown). The following applies: ref literature (numbers not shown); cited from earlier work.
The subject of the next data set is P. falciparum D6 strain. More on the design: method as in literature (numbers not shown). The following applies: ref literature (numbers not shown); cited from earlier work.
Data set [5] relates to variety of P. falciparum strains. The following applies: FCR3 and INDO strains; ref previous reports (numbers not shown); read-out: IC50; cited from earlier work.
Another data set deals with P. falciparum W2 strain. More on the design: method as in literature (numbers not shown). The following applies: ref literature (numbers not shown); cited from earlier work.
Another data set has as its system P. falciparum. Also noted: method as in literature (number not shown). The following applies: strain not stated, ref literature (number not shown), cited from earlier work.
The mark [6] stands for this setting: K1 strain, 48 h, CI95 in brackets, read-out: P. falciparum IC50 (CI95).
The mark [7] stands for this setting: MRC5, MRC-5, tested at 50 μg/mL for 48 h.
Setting [8] is: read-out: P. falciparum IC50 (CI95), K1 strain, 48 h, CI95 in brackets.

Converted amounts (≈) assume the structure as drawn. “And” between values parts separate entries of the source, which are not always exact repeats. Equal entries are not always repeated. Structures can show the parent of a compound that is named as a salt. Where two headings read alike, the source gives them in different places.

As a reminder, the IC50 is the concentration needed to halve the response being measured.

With `CC(=O)O[C@H]1C[C@H]2C(C)(C)C(=O)C=C[C@]2(C)[C@H]2CC[C@@]3(C)[C@H](c4ccoc4)OC(=O)[C@H]4O[C@]43[C@]12C` [compound 5, 7-epi-gedunin], the “selectivity index (SI)” value in data set [1] is listed as above 45. Moreover, the IC50 was 1.1 µg/mL and 2.3 µM in data set [2] (setting [6]); above 100 µM in the data set on MRC-5 human fibroblasts (setting [7]).

As to `CC1(C)[C@H](O)CC[C@]2(C)[C@H]3CC[C@@]4(C)[C@H](c5ccoc5)OC(=O)[C@H]5O[C@]54[C@]3(C)[C@@H](O)C[C@@H]12` [compound 16, 7-deacetyl-3-deoxo-1,2-dihydro-3α-hydroxy-7-epi-gedunin], the “selectivity index (SI)” value in data set [1] was above 3.2. Besides, the IC50 is 16 µg/mL (≈ 36 µM) in [2] (setting [6]) and above 110 µM in the data set with MRC-5 human fibroblasts (setting [7]).

With `CCCC(=O)O[C@H]1C[C@H]2C(C)(C)C(=O)C=C[C@]2(C)[C@H]2CC[C@@]3(C)[C@H](c4ccoc4)OC(=O)[C@H]4O[C@]43[C@]12C` [compound 7, 7-deacetyl-7-butanoyl-7-epi-gedunin], the “selectivity index (SI)” value in [1] is recorded as above 21. The IC50 in [2] (setting [8]) is 2.4 µg/mL and 4.7 µM; in the data set with MRC-5 human fibroblasts (MRC5, 48 h), above 98 µM.

For the molecule `CCCCC(=O)O[C@H]1C[C@H]2C(C)(C)C(=O)C=C[C@]2(C)[C@H]2CC[C@@]3(C)[C@H](c4ccoc4)OC(=O)[C@H]4O[C@]43[C@]12C` [compound 9, 7-deacetyl-7-pentanoyl-7-epi-gedunin], in data set [1], the “selectivity index (SI)” value is recorded as above 14. Also, the IC50 is 3.7 µg/mL and 7 µM in [2] (setting [6]); above 95 µM in the data set on MRC-5 human fibroblasts (setting [7]).

Turning to `CCCCCCC(=O)O[C@H]1[C@@H](O)[C@]2(C)[C@H](CC[C@@]3(C)[C@H](c4ccoc4)OC(=O)[C@H]4O[C@@]423)[C@@]2(C)C=CC(=O)C(C)(C)[C@H]12` [compound 15, 7-deacetyl-6α-heptanoyloxygedunin], the “selectivity index (SI)” value in data set [1] is on record as above 9.4. The IC50 in data set [2] (setting [6]) was 5.4 µg/mL and 9.4 µM; with MRC-5 human fibroblasts (setting [7]), above 88 µM.

For `CC1(C)C(=O)C=C[C@]2(C)[C@H]3CC[C@@]4(C)[C@H](c5ccoc5)OC(=O)[C@H]5O[C@]54[C@]3(C)[C@H](O)[C@H](O)[C@@H]12` [compound 10, 7-deacetyl-6α-hydroxygedunin], the IC50 with P. falciparum K1 strain was 5 µM; in [2] (setting [6]) it was 2.8 µg/mL and 6.1 µM; in the data set on MRC-5 human fibroblasts (setting [7]), above 100 µM. Also, the “selectivity index (SI)” value in data set [1] was above 16.

With `CC(=O)O[C@H]1[C@@H](OC(C)=O)[C@]2(C)[C@H](CC[C@@]3(C)[C@H](c4ccoc4)OC(=O)[C@H]4O[C@@]423)[C@@]2(C)C=CC(=O)C(C)(C)[C@H]12` [6α-acetoxygedunin], the “toxicity to FM3A cells” value in [3] is “toxic”. For the same molecule, the IC50 in data set [4] is 2.8 µM.

On to `CC1(C)C(=O)C=C[C@]2(C)[C@H]3CC[C@@]4(C)[C@H](c5ccoc5)OC(=O)[C@H]5O[C@]54[C@]3(C)C(=O)C[C@@H]12` [compound 1, 7-Deacetyl-7-oxogedunin], for which the IC50 in the data set on P. falciparum D6 strain was above 20.7 µM; in data set [5] it was 2.5 to 7.5 µM; in the data set on P. falciparum W2 strain, above 20.7 µM. Moreover, the “toxicity to FM3A cells” value in data set [3] was “toxic”.

As for `CCCC(=O)O[C@H]1[C@@H](O)[C@]2(C)[C@H](CC[C@@]3(C)[C@H](c4ccoc4)OC(=O)[C@H]4O[C@@]423)[C@@]2(C)C=CC(=O)C(C)(C)[C@H]12` [compound 13, 7-deacetyl-6α-butanoyloxygedunin], the “selectivity index (SI)” value in data set [1] is on record as above 15. Moreover, the IC50 in data set [2] (setting [6]) was 3.7 µg/mL and 7.1 µM; in the data set on MRC-5 human fibroblasts (setting [7]) it was above 100 µM.

For the molecule `CCN(CC)CCCC(C)Nc1ccnc2cc(Cl)ccc12` (stereo not drawn) [chloroquine diphosphate, reference compound], the IC50 in data set [2] (read-out: P. falciparum IC50 (CI95)) was 0.18 µg/mL and 350 nM.

Regarding `CC1(C)C(=O)C=C[C@]2(C)[C@H]3CC[C@@]4(C)[C@H](c5ccoc5)OC(=O)[C@H]5O[C@]54[C@]3(C)[C@H](O)[C@H](OC(=O)c3ccccc3)[C@@H]12` [compound 14, 7-deacetyl-6α-benzoxygedunin], the “selectivity index (SI)” value in data set [1] is given as above 11. The IC50 is 5.1 µg/mL and 10 µM in data set [2] (setting [6]); above 110 µM in the data set with MRC-5 human fibroblasts (setting [7]).

As to `CC(=O)O[C@@H]1C[C@H]2C(C)(C)C(=O)C=C[C@]2(C)[C@H]2CC[C@@]3(C)[C@H](c4ccoc4)OC(=O)[C@H]4O[C@]43[C@@]21C` (single isomer, unassigned) [(−)-gedunin, reference compound], the IC50 was 0.081 to 0.63 µM with P. falciparum D6 strain; 0.041 to 0.65 µM with P. falciparum W2 strain; 1 µM in the data set with P. falciparum (48 h, read-out: IC50 after 48 h); 0.3 µM with P. falciparum (96 h, read-out: IC50 after 96 h).

For `CC(=O)O[C@H]1[C@@H](O)[C@]2(C)[C@H](CC[C@@]3(C)[C@H](c4ccoc4)OC(=O)[C@H]4O[C@@]423)[C@@]2(C)C=CC(=O)C(C)(C)[C@H]12` [6α-acetoxy-7-deacetylgedunin, reference compound], the IC50 in data set [4] is 4 µM.

For the molecule `CC(=O)O[C@@H]1[C@H](O)[C@H]2C(C)(C)C(=O)C=C[C@]2(C)[C@H]2CC[C@@]3(C)[C@H](c4ccoc4)OC(=O)[C@H]4O[C@]43[C@]12C` [compound 11, 6α-hydroxygedunin], the “selectivity index (SI)” value in [1] is on record as above 26. Besides, the IC50 is 2.2 µg/mL and 4.4 µM in data set [2] (setting [6]); above 110 µM in the data set with MRC-5 human fibroblasts (setting [7]); 90 µM in data set [4].

Turning to `CC1(C)C(=O)C=C[C@]2(C)[C@H]3CC[C@@]4(C)[C@H](c5ccoc5)OC(=O)[C@H]5O[C@]54[C@]3(C)[C@@H](O)C[C@@H]12` [compound 3, 7-deacetyl-7-epi-gedunin], the “selectivity index (SI)” value in data set [1] was above 15. In addition, the IC50 in [2] (setting [8]) was 3.4 µg/mL and 7.8 µM; in the data set on MRC-5 human fibroblasts (MRC5, 48 h), above 110 µM.

Consider `C=C[C@H]1C[N@@]2CC[C@H]1C[C@H]2[C@H](O)c1ccnc2ccc(OC)cc12` [quinine hydrochloride, reference compound], for which the IC50 in data set [2] (setting [6]) was 0.14 µg/mL and 350 nM.

Turning to `CCCCC(=O)O[C@@H]1C[C@H]2C(C)(C)C(=O)C=C[C@]2(C)[C@H]2CC[C@@]3(C)[C@H](c4ccoc4)OC(=O)[C@H]4O[C@]43[C@@]21C` [compound 8, 7-deacetyl-7-pentanoylgedunin], the “selectivity index (SI)” value in data set [1] is given as above 12. The IC50 was 4.2 µg/mL and 8 µM in [2] (setting [6]); above 95 µM with MRC-5 human fibroblasts (setting [7]).

Regarding `CCCC(=O)O[C@@H]1C[C@H]2C(C)(C)C(=O)C=C[C@]2(C)[C@H]2CC[C@@]3(C)[C@H](c4ccoc4)OC(=O)[C@H]4O[C@]43[C@@]21C` [compound 6, 7-deacetyl-7-butanoylgedunin], the “selectivity index (SI)” value in [1] is listed as above 21. In addition, the IC50 was 2.4 µg/mL and 4.7 µM in [2] (setting [8]); above 98 µM with MRC-5 human fibroblasts (MRC5, 48 h).

The values are drawn from article PMC12529149, “Chemical and Antiplasmodial Investigations on Carapa-Derived Gedunin Derivatives and Semisynthetic 6- and 7‑Substituted Gedunin Analogues from the Brazilian Amazon” (ACS Omega, 2025).
